{"source": "patent US8362227B2", "about": "“Detection of clostridium difficile” (Mayo Foundation for Medical Education and Research, priority 2008, dated 2013)", "system": "C. difficile culture positive isolates", "assay": "Agar dilution MIC testing of anaerobes (moxifloxicin susceptibility)", "format": "cell-based, Clostridium difficile", "details": "for Susceptibility to Moxifloxicin, I = 4 (number of specimens): I = intermediate; for Susceptibility to Moxifloxicin, I = 4 (number of specimens) / Susceptibility to Moxifloxicin, R > 8 (number of specimens) / Susceptibility to Moxifloxicin, S ≦ 2 (number of specimens): agar dilution; for Susceptibility to Moxifloxicin, R > 8 (number of specimens): R = resistant; for Susceptibility to Moxifloxicin, S ≦ 2 (number of specimens): S = susceptible", "protocol": "Moxifloxicin susceptibility testing by agar dilution was performed on all C. difficile culture positive isolates. Growth from subculture plates was suspended in pre-reduced Schaedler's broth to McFarland 0.5 turbidity. A Steers replicator seed block was used to inoculate the moxifloxicin plate from lowest to highest dilution. The inoculated media was incubated under anaerobic conditions for 48 hours before endpoint determination was read. The testing was performed and interpreted as defined in CLSI document M11-A7.", "key": {"[1]": {"details": "LIGHTCYCLER PCR bp deletions demonstrated in tcdC"}, "[2]": {"details": "LIGHTCYCLER PCR no deletions demonstrated"}}, "data": [{"molecule": "COc1c(N2C[C@@H]3CCCN[C@@H]3C2)c(F)cc2c(=O)c(C(=O)O)cn(C3CC3)c12", "note": "[Moxifloxicin]", "values": [{"measurement": "specimens with tcdC gene deletions showing resistance to moxifloxicin", "setting": "13 specimens with the tcdC gene deletions", "value": 46, "unit": "%"}, {"measurement": "Susceptibility to Moxifloxicin, I = 4 (number of specimens)", "setting": "[1]", "value": 0}, {"measurement": "Susceptibility to Moxifloxicin, R > 8 (number of specimens)", "setting": "[1]", "value": 6}, {"measurement": "Susceptibility to Moxifloxicin, S ≦ 2 (number of specimens)", "setting": "[1]", "value": 7}, {"measurement": "Susceptibility to Moxifloxicin, I = 4 (number of specimens)", "setting": "[2]", "value": 2}, {"measurement": "Susceptibility to Moxifloxicin, R > 8 (number of specimens)", "setting": "[2]", "value": 7}, {"measurement": "Susceptibility to Moxifloxicin, S ≦ 2 (number of specimens)", "setting": "[2]", "value": 20}, {"measurement": "Susceptibility to Moxifloxicin, I = 4 (number of isolates)", "setting": "Total, all 49 C. difficile culture positive isolates, intermediate at 4 μg/mL", "value": 2}, {"measurement": "Susceptibility to Moxifloxicin, I = 4 (number of isolates)", "setting": "Total, all 49 C. difficile culture positive isolates, intermediate at 4 μg/mL, listed as moxifloxicin", "value": "two"}, {"measurement": "Susceptibility to Moxifloxicin, R > 8 (number of isolates)", "setting": "Total, all 49 C. difficile culture positive isolates, resistant", "value": 13}, {"measurement": "Susceptibility to Moxifloxicin, S ≦ 2 (number of isolates)", "setting": "Total, all 49 C. difficile culture positive isolates, susceptible at ≦2 μg/mL", "value": 32}, {"measurement": "Susceptibility to Moxifloxicin, S ≦ 2 (number of isolates)", "setting": "Total, all 49 C. difficile culture positive isolates, susceptible at ≦2 μg/mL, listed as moxifloxicin", "value": "Thirty-two"}, {"measurement": "culture positive isolates intermediate to moxifloxicin", "setting": "intermediate at 4 μg/mL, 49 C. difficile culture positive isolates", "value": 4, "unit": "%"}, {"measurement": "culture positive isolates resistant to moxifloxicin", "setting": "resistant at ≧8 μg/mL, 49 C. difficile culture positive isolates", "value": 26, "unit": "%"}, {"measurement": "culture positive isolates susceptible to moxifloxicin", "setting": "susceptible at ≦2 μg/mL, 49 C. difficile culture positive isolates", "value": 65, "unit": "%"}]}]}
